pEC50, pIC50: −log10 of the molar value.
Legend:
[1] = target: T1, HCV NS3/4A protease complex (Hepatitis C virus genotype 1a, UniProt P27958, C1454S/C1711G); assay: FRET peptide assay to monitor HCV NS3/4A proteolytic activity; format: biochemical
T1 construct: DNA encoding the recombinant HCV NS3/4A protease complex (amino acids 1027 to 1711) for these strains; inferred from pET21b vector and Ni-NTA purification; made in house; host or cells: Escherichia coli BL21 (DE3)
From the text: HCV NS3 protease complexes, derived from the BMS strain, H77 strain or J4L6S strain, were generated, as described below. These purified recombinant proteins were generated for use in a homogeneous assay (see below) to provide an indication of how effective compounds of the present disclosure would be in inhibiting HCV NS3 proteolytic activity.
Serum from an HCV-infected patient was obtained from Dr. T. Wright, San Francisco Hospital. An engineered full-length cDNA (compliment deoxyribonucleic acid) template of the HCV genome (BMS strain) was constructed from DNA fragments obtained by reverse transcription-PCR (RT-PCR) of serum RNA (ribonucleic acid) and using primers selected on the basis of homology between other genotype 1a strains. From the determination of the entire genome sequence, a genotype 1a was assigned to the HCV isolate according to the classification of Simmonds et al. (See P Simmonds, K A Rose, S Graham, S W Chan, F McOmish, B C Dow, E A Follett, P L Yap and H Marsden, J. Clin. Microbial., 31(6), 1493-1503 (1993)). […] The infectious clones, H77 (1a genotype) and J4L6S (1b genotype) were obtained from R. Purcell (NIH) and the sequences are published in Genbank (AAB67036, see Yanagi, M., Purcell, R. H., Emerson, S. U. and Bukh, J. Proc. Natl. Acad. Sci. USA. 94(16), 8738-8743 (1997); AF054247, see Yanagi, M., St Claire, M., Shapiro, M., Emerson, S. U., Purcell, R. H. and Bukh, J., Virology 244 (1), 161-172. (1998)).
The H77 and J4L6S strains were used for production of recombinant NS3/4A protease complexes. DNA encoding the recombinant HCV NS3/4A protease complex (amino acids 1027 to 1711) for these strains was manipulated as described by P. Gallinari et al. (see Gallinari P, Paolini C, Brennan D, Nardi C, Steinkuhler C, De Francesco R. Biochemistry. 38(17):5620-32, (1999)). Briefly, a three-lysine solubilizing tail was added at the 3′-end of the NS4A coding region. The cysteine in the P1 position of the NS4A-NS4B cleavage site (amino acid 1711) was changed to a glycine to avoid the proteolytic cleavage of the lysine tag. […]

[2] = test system: HCV replicon in HUH-7 cells; assay: HCV replicon FRET assay; format: cell-based, Hepatitis C virus (strain 1b); details: Hepatitis C virus, Huh-7, 96 h
From the text: An HCV replicon whole cell system was established as described by Lohmann V, Korner F, Koch J, Herian U, Theilmann L, Bartenschlager R., Science 285(5424):110-3 (1999). This system enabled us to evaluate the effects of our HCV Protease compounds on HCV RNA replication. Briefly, using the HCV strain 1b sequence described in the Lohmann paper (Assession number:AJ238799), an HCV cDNA was synthesized by Operon Technologies, Inc. (Alameda, Calif.), and the full-length replicon was then assembled in plasmid pGem9zf(+) (Promega, Madison, Wis.) using standard molecular biology techniques. […]
The HCV replicon FRET assay was developed to monitor the inhibitory effects of compounds described in the disclosure on HCV viral replication. […] After 4 days, cells were first assessed for cytotoxicity using alamar Blue (Trek Diagnotstic Systems) for a CC50 reading. The toxicity of compound (CC50) was determined by adding 1/10th volume of alamar Blue to the media incubating the cells. After 4 h, the fluorescence signal from each well was read, with an excitation wavelength at 530 nm and an emission wavelength of 580 nm, using the Cytofluor Series 4000 (Perspective Biosystems). […]

[3] = test system: HCV 1b replicon (Renilla luciferase reporter) in HUH-7 cells; assay: HCV replicon luciferase reporter assay; format: cell-based, Hepatitis C virus (strain 1b); details: Huh-7, 96 h, 4 days, read-out: Potency in the 1b luciferase assay
From the text: As a secondary assay, EC50 determinations from the replicon FRET assay were confirmed in a replicon luciferase reporter assay. Utilization of a replicon luciferase reporter assay was first described by Krieger et al (Krieger N, Lohmann V, and Bartenschlager R, J. Virol. 75(10):4614-4624 (2001)). The replicon construct described for our FRET assay was modified by inserting cDNA encoding a humanized form of the Renilla luciferase gene and a linker sequence fused directly to the 3′-end of the luciferase gene. This insert was introduced into the replicon construct using an Asc1 restriction site located in core, directly upstream of the neomycin marker gene. The adaptive mutation at position 1179 (serine to isoleucine) was also introduced (Blight K J, Kolykhalov, A A, Rice, C M, Science 290(5498):1972-1974). A stable cell line constitutively expressing this HCV replicon construct was generated as described above. The luciferase reporter assay was set up as described for the HCV replicon FRET assay with the following modifications. Following 4 days in a 37° C./5% CO2 incubator, cells were analyzed for Renilla Luciferase activity using the Promega Dual-Glo Luciferase Assay System. Media (100 μl) was removed from each well containing cells. To the remaining 50 μl of media, 50 μl of Dual-Glo Luciferase Reagent was added, and plates rocked for […] to 2 h at room temperature. Dual-Glo Stop & Glo Reagent (50 μl) was then added to each well, and plates were rocked again for an additional 10 min to 2 h at room temperature. Plates were read on a Packard TopCount NXT using a luminescence program.
The percentage inhibition was calculated using the formula below: […]
The values were graphed and analyzed using XLfit to obtain the EC50 value.

T1 sequence (P27958 1027-1711 C1454S/C1711G, one chain of several): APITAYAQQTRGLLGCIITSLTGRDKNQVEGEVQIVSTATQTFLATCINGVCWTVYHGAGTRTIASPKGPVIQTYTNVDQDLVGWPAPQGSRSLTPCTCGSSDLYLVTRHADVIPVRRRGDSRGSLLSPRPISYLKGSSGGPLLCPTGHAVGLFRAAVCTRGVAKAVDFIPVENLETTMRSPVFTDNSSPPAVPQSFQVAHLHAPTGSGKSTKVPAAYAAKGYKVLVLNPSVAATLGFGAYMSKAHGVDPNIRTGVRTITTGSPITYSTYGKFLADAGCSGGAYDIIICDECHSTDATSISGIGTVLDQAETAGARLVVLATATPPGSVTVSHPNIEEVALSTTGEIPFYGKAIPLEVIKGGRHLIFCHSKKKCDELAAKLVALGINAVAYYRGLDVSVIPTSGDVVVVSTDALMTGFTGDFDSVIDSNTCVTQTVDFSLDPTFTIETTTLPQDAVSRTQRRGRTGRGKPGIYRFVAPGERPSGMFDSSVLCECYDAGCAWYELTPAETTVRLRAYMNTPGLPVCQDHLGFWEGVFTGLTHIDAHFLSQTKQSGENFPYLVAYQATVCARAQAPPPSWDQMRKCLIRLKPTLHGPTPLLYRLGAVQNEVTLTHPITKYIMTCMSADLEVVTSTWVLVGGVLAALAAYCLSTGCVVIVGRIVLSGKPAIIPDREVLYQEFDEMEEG

Compound	pIC50 [1]	pEC50 [2]	pEC50 [3]
COc1cc2ccc3cc2cc1C=CCC(C)(C)COC(=O)N[C@H]1CCCCC/C=C\[C@@H]2C[C@@]2(C(=O)NS(=O)(=O)C2CC2)NC(=O)[C@@H]2C[C@]3(OC)CN2C1=O (mixture of isomers) [Compound 1]	9.00	8.01	8.80
COc1cc2ccc3cc2cc1CCCC(C)(C)CCOC(=O)N[C@H]1CCCCCCC[C@@H]2C[C@@]2(C(=O)NS(=O)(=O)C2CC2)NC(=O)[C@@H]2C[C@]3(OC)CN2C1=O [Compound 3]	9.00		8.57
COc1cc2ccc3cc2cc1CCCCCCOC(=O)N[C@H]1CCCCCCC[C@@H]2C[C@@]2(C(=O)NS(=O)(=O)C2CC2)NC(=O)[C@@H]2C[C@]3(OC)CN2C1=O [Compound 2]	8.30		8.41

Source: patent US20100272674A1, “Hepatitis C Virus Inhibitors” (Bristol-Myers Squibb Company, priority 2008, published 2010)
